Experimental findings from patent US3950354A, “Imidazolylacetic acid amides” (Bayer Aktiengesellschaft, priority 1972, dated 1976) are described below.

Assay [1] relates to Trichophyton mentagrophytes. Nature of the assay: Anti-mycotic spectrum of action in vitro, series dilution test (Trichophyton mentagrophytes). The class given is cell-based. The note with it: read-out: Minimum inhibitory concentration. As to the method: (§1) Determination of the anti-mycotic spectrum of action in vitro, by the series dilution test
(§2) The nutrient substrates used were Sabouraud's milieu d'epreuve for dermatophytes and moulds, and meat broth-glucose bouillon for blastomycetes and biphase fungi.
(§3) The incubation temperature was 28°C and the incubation time was 24 to 96 hours.

A further assay concerns Penicillium commune. The experiment in a line: Anti-mycotic spectrum of action in vitro, series dilution test (Penicillium commune). It counts as cell-based. The note with it: read-out: Minimum inhibitory concentration. As to the method: as §1, §2, §3
Assay [2] relates to Candida albicans. Nature of the assay: Candidosis of mice. It counts as in vivo, Mice of type SPF-CF1. The note with it: oral, 50, 75, 100 and 150 mg/kg, one hour before and 7 hours after infection; 1 to 2 × 10^6 Candida cells intravenously. As to the method: Mice of type SPF-CF1 were intravenously infected with 1 to 2 × 10^6 Candida cells which were suspended in physiological sodium chloride solution.
One hour before and 7 hours after infection, the animals were treated orally with 50, 75, 100 and 150 mg of the compounds according to the invention/kg of body weight. Untreated control animals died of the infection, 3 to 6 days after infection.

Assay [3] has as its system Candida albicans. Nature of the assay: Anti-mycotic spectrum of action in vitro, series dilution test (Candida albicans). It counts as cell-based. The note with it: read-out: Minimum inhibitory concentration. As to the method: as §1, §2, §3
Another assay deals with Aspergillus niger. The experiment in a line: Anti-mycotic spectrum of action in vitro, series dilution test (Aspergillus niger). The note with it: * = 90% inhibition of growth, read-out: Minimum inhibitory concentration. It counts as cell-based. The procedure: as §1, §2, §3
A further assay relates to Microsporon felineum. Nature of the assay: Anti-mycotic spectrum of action in vitro, series dilution test (Microsporon felineum). It counts as cell-based. The following applies: read-out: Minimum inhibitory concentration. The procedure:
as §1, §2, §3

Setting [4] is: n.s. = no serum added, Sabouraud's milieu d'epreuve, 28°C, 24 to 96 hours.
Setting [5] is: n.s. = no serum added, meat broth-glucose bouillon, 28°C, 24 to 96 hours.
Setting [6] is: n.s. = no serum added, + = 50% inhibition of growth.
Setting [7] is: n.s. = no serum added, * = 90% inhibition of growth.

SMILES strings stand for the structures. Converted amounts (≈) assume the structure as drawn. Read-outs that look alike come from different tables or passages of the source.

Regarding `O=C(N1CCS(=O)(=O)CC1)C(c1ccc(Cl)cc1)(c1ccc(Cl)cc1)n1ccnc1` [Example 2, [ω,ω-di(4-chlorophenyl)-ω-imidazolyl-(1)-methylcarbonyl-(4)]-1,4-thiazine dioxide], the MIC was 100 µg/mL (≈ 215 µM) in assay [1] (setting [4]); greater than 100 µg/mL with Penicillium commune (28°C, 24 to 96 hours); greater than 100 µg/mL with Candida albicans [3] (setting [5]). Besides, the “Action in the case of Candida albicans (survivals on 6th day after infection)” value (“Action in the case of Candida albicans” below) in the assay on Candida albicans [2] is recorded as “+ (50% survivals on 6th day after infection)”.
For the compound `O=C(Nc1cccc(C(F)(F)F)c1)C(c1ccccc1)(c1ccccc1)n1ccnc1` [Example 4, ω,ω-diphenyl-ω-imidazolyl-(1)-acetic acid 3-trifluoromethylanilide], the MIC in assay [1] (setting [4]) is 64 µg/mL (≈ 152 µM); in assay [1] (w.s. = with 30% serum added), 64 µg/mL (≈ 152 µM); in the assay with Penicillium commune (28°C, 24 to 96 hours) it was greater than 64 µg/mL; in the assay with Candida albicans [3] (setting [5]) it was greater than 64 µg/mL; in the assay with Candida albicans [3] (w.s. = with 30% serum added) it was greater than 64 µg/mL.
For the compound `Cc1cc(Cl)ccc1NC(=O)C(c1ccccc1)(c1ccccc1)n1ccnc1` [Example 5, ω,ω-diphenyl-ω-imidazolyl-(1)-acetic acid 2-methyl-4-chloro-anilide], the MIC in assay [1] (setting [4]) is 32 µg/mL (≈ 79.6 µM); in assay [1] (w.s. = with 30% serum added), 32 µg/mL (≈ 79.6 µM); with Penicillium commune (28°C, 24 to 96 hours), greater than 64 µg/mL; in the assay on Candida albicans [3] (setting [6]), 8 µg/mL; with Candida albicans [3] (w.s. = with 30% serum added, + = 50% inhibition of growth), 64 µg/mL.
As for `O=C(Nc1ccc(Cl)cc1Cl)C(c1ccccc1)(c1ccccc1)n1ccnc1` [Example 6, ω,ω-diphenyl-ω-imidazolyl-(1)-acetic acid 2,4-dichloroanilide], the MIC in assay [1] (setting [7]) turned out to be 1 µg/mL (≈ 2.37 µM); in assay [1] (w.s. = with 30% serum added) it was 8 µg/mL (≈ 18.9 µM); in the assay on Aspergillus niger (n.s. = no serum added) it was 4 µg/mL (≈ 9.47 µM); in the assay on Aspergillus niger (w.s. = with 30% serum added), 8 µg/mL (≈ 18.9 µM); in the assay with Microsporon felineum (* = 90% inhibition of growth), 4 µg/mL (≈ 9.47 µM); in the assay on Penicillium commune (* = 90% inhibition of growth) it was 64 µg/mL (≈ 152 µM). Further, the MIC in the assay on Candida albicans [3] (setting [7]) was 1 µg/mL (≈ 2.37 µM); with Candida albicans [3] (w.s. = with 30% serum added, * = 90% inhibition of growth), 32 µg/mL (≈ 75.8 µM).
On to `O=C(NC1CCCCC1)C(c1ccccc1)(c1ccccc1)n1ccnc1` [Example 7, ω,ω-diphenyl-ω-imidazolyl-(1)-acetic acid cyclohexylamide], for which the MIC in assay [1] (setting [7]) is 32 µg/mL (≈ 89 µM); in assay [1] (w.s. = with 30% serum added), greater than 64 µg/mL; with Penicillium commune (28°C, 24 to 96 hours), greater than 64 µg/mL; in the assay on Candida albicans [3] (setting [7]) it was 4 µg/mL (≈ 11.1 µM); in the assay with Candida albicans [3] (w.s. = with 30% serum added), 8 µg/mL (≈ 22.3 µM). In addition, the “Action in the case of Candida albicans” value with Candida albicans [2] is “++ (60 to 80% survivials on 6th day after infection)”.
With `O=C(N1CCS(=O)(=O)CC1c1ccccc1)C(c1ccc(Cl)cc1)(c1ccc(Cl)cc1)n1ccnc1` (stereo not drawn) [Example 11, 4-[ω,ω-di-(4-chlorophenyl)-ω-imidazolyl-(1)-methylcarbonyl]-3-phenyl-1,4-thiazine dioxide], the MIC is 32 µg/mL (≈ 59.2 µM) in assay [1] (setting [4]); 32 µg/mL (≈ 59.2 µM) in assay [1] (w.s. = with 30% serum added); greater than 64 µg/mL in the assay with Penicillium commune (28°C, 24 to 96 hours); greater than 64 µg/mL in the assay on Candida albicans [3] (setting [5]); greater than 64 µg/mL in the assay with Candida albicans [3] (w.s. = with 30% serum added).
As for `CCOC(=O)N1CCN(C(=O)C(c2ccccc2)(c2ccccc2)n2ccnc2)CC1` [Example 12, 4-[ω,ω-diphenyl-ω-imidazolyl-(1)-methylcarbonyl]-1-ethoxycarbonyl-piperazine], the MIC in assay [1] (setting [6]) is 64 µg/mL; in the assay with Penicillium commune (28°C, 24 to 96 hours), greater than 64 µg/mL; in the assay on Candida albicans [3] (setting [6]), 64 µg/mL; with Candida albicans [3] (w.s. = with 30% serum added), greater than 64 µg/mL. Also, the “Action in the case of Candida albicans” value in the assay on Candida albicans [2] is on record as “+ (50% survivals on 6th day after infection)”.
For `O=C(N1CCN(c2ccccc2Cl)CC1)C(c1ccccc1)(c1ccccc1)n1ccnc1` [Example 13, 4-[ω,ω-diphenyl-ω-imidazolyl-(1)-methylcarbonyl]-1-o-chlorophenyl-piperazine], the MIC in assay [1] (setting [4]) is 10 µg/mL (≈ 21.9 µM); in assay [1] (w.s. = with 30% serum added) it was 40 µg/mL (≈ 87.5 µM); in the assay on Aspergillus niger (n.s. = no serum added), 1 µg/mL (≈ 2.19 µM); in the assay with Aspergillus niger (w.s. = with 30% serum added), 100 µg/mL (≈ 219 µM); with Microsporon felineum (28°C, 24 to 96 hours), 100 µg/mL (≈ 219 µM); in the assay with Penicillium commune (28°C, 24 to 96 hours) it was greater than 100 µg/mL. Besides, in the assay with Candida albicans [3] (setting [5]), the MIC was greater than 100 µg/mL.
